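These data come from cells grown in 96-well plates and exposed to compound for 48 hours at five concentrations. GI50 marks 50% less growth. TGI marks complete inhibition of growth.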
How the values were obtained:
Test in all cases: DTP human tumour cell line panel, 48 h
[1] = tested on: DU-145 prostate
[2] = tested on: HCT-15 colon
[3] = tested on: HS 578T breast
[4] = tested on: IGROV1 ovarian
[5] = tested on: KM12 colon
[6] = tested on: MCF7 breast
[7] = tested on: MDA-MB-231 breast
[8] = tested on: NCI-H226 lung
[9] = tested on: SK-MEL-2 melanoma
[10] = tested on: SNB-75 CNS

Structure (SMILES)	TGI [1] [µM]	TGI [2] [µM]	TGI [3] [µM]	TGI [4] [µM]	TGI [5] [µM]	TGI [6] [µM]	TGI [7] [µM]	TGI [8] [µM]	TGI [9] [µM]	TGI [10] [µM]	GI50 [1] [µM]	GI50 [2] [µM]	GI50 [3] [µM]	GI50 [4] [µM]	GI50 [5] [µM]	GI50 [6] [µM]	GI50 [7] [µM]	GI50 [8] [µM]	GI50 [9] [µM]	GI50 [10] [µM]
COC(=O)C(=O)C(C(=O)C(=O)Nc1ccc(Cl)cc1Cl)c1nc2ccc(Cl)cc2[nH]c1=O (stereo unspecified)	> 100	> 100	> 100	> 100	> 100	> 100	> 100	> 100	> 100	> 100										
COc1ccc2c(c1)Cc1cc(N=[N+]([O-])c3ccc4c(c3)Cc3cc(OC)ccc3-4)ccc1-2	> 100	> 100	> 100	55.2	> 100	64.4	> 100	> 100	> 100	> 100										
Cc1c(Br)cccc1NC(=O)c1sc2nc3c(cc2c1N)CN(Cc1ccccc1)CC3	2.99	> 50	15.4	> 50	10.2	> 50	38.1	18.9	15.1	17.1	0.168	0.165	0.208	0.47	0.168	0.17	0.531	1.18	0.231	0.28
COc1cc(C2C3=C(COC3=O)N(CCO)c3cc4c(cc32)OCCO4)cc(OC)c1O (stereo unspecified)	> 21.7	> 50	> 50	> 16.5	> 37	> 50	> 50	> 50	> 13.4	> 50	1.71	11.7	1.14	1.17	1.5	0.957	4.41	> 19.5		0.713
C=CC[n+]1c(/C=C2\Sc3ccccc3N2C)sc(-c2ccccc2)c1-c1ccccc1	12.2	13.4	19.4	13.7	1.95	1.77	2.99	0.977			0.439	2.18	0.374	0.45	0.331	0.286	0.287	0.258		0.298
CC(C)n1c2c(c3ccccc3c1=O)C(=O)c1ccccc1-2	> 100	> 100	> 100	> 100	> 100	> 100	> 100	> 100	> 100	> 100										
CC(=O)O/N=C1\C=Cc2c(no[n+]2[O-])C1=O	32	36.4	56.3	30.3	33.7	45.4	34.4	> 100	32.7	35.5										
O=C1/C(=C/c2ccc(F)cc2)CN(Cc2cn(CCNc3ccnc4cc(Cl)ccc34)nn2)C/C1=C\c1ccc(F)cc1	2.63	3.21	7.56	2.93	1.19	1.75	3.41	4.24	3.73	3.62	1.32	1.4	2.33	1.5	0.328	0.4	1.76	1.91	1.94	1.6

From PubChem BioAssay (NCI)
